Data from patent US20090317461A1, “ORAL COMPOSITIONS EFFECTIVE FOR THE TREATMENT OF ORAL CAVITY MALODOR ASSOCIATED WITH THE CONSUMPTION OF ODOR-CAUSING COMPOUNDS” (Wm. Wrigley Jr. Company, priority 2006, published 2009).

Legend:
[1] = Menthol treatment of garlic model solution, TIC chromatogram peak area (Example 47)
Protocol: The following example details testing of menthol for treatment of solutions with characteristic garlic aroma. Model solutions containing raw chopped garlic dispersed in water were prepared as described in Example 1. Portions of model solution (2.5 g) were treated with menthol in varying amounts (0.5 mg, 1.0 mg, and 1.5 mg).

[2] = Headspace diallyl disulfide of garlic model solution treated with menthone, GC/MS at 5 hour intervals (Example 3); details: menthone 1.63 mg in 2.5 g model solution; at each headspace analysis interval (5 hour intervals)
Protocol: A model solution containing raw chopped garlic dispersed in water was prepared as described in Example 1. […] For comparison purposes, the diallyl disulfide content of the headspace of a control model solution (i.e., no menthone added) was also analyzed.

[3] = Sensory analysis: ten panelists rate odor intensity of raw macerated garlic solution with and without active; details: for reduction of odor (intensity) of raw macerated garlic in water: sensory panel; for Odor Intensity (0-100), Mean: N = 10 panelists
Protocol: Sensory analysis of the solutions utilized for analytical analyses of the raw garlic described above was conducted by ten panelists who evaluated the odor intensity of the model solution (raw macerated garlic) with and without the different levels of added active. Odor intensity was assessed utilizing a 0-100 point scale ballot with 0=no odor and 100=very strong odor.

SMILES | reduction in odor-causing compounds ([1]; 0.5 mg in 2.5 g model solution) | reduction in odor-causing compounds ([1]; 1 mg in 2.5 g model solution) | reduction in odor-causing compounds ([1]; 1.5 mg in 2.5 g model solution) | less diallyl disulfide in headspace than control model solution [2] | reduction of odor (intensity) of raw macerated garlic in water ([3]; active concentration 0.3 mg/g) | reduction of odor (intensity) of raw macerated garlic in water ([3]; active concentration 3 mg/g) | Odor Intensity (0-100), Mean ([3]; menthone 0.33 mg/g) | Odor Intensity (0-100), Mean ([3]; menthone 1 mg/g) | Odor Intensity (0-100), Mean ([3]; menthone 3 mg/g)
CC1CCC(C(C)C)C(O)C1 (stereo not drawn) [menthol] | approximately 43% | approximately 51% | approximately 60% |  |  |  |  |  | 
CC(C)[C@@H]1CC[C@@H](C)CC1=O [menthone] |  |  |  | at least 50% | 48% | 80% | 5.2 | 2.7 | 2
